Measured values reported in US11058700B2, “Macrocyclic lactones and uses thereof as modulators of purinergic receptors” (City of Hope, priority 2015, dated 2021).

Tests used:
[1] = tested on: Caspase-1, Caspase-3 and PARP in 4T1.2 and MDA-MB-231 cells; experiment: Caspase activation and PARP cleavage; assay type: cell-based, mouse, human; conditions: 32 μM, 4 h
Description: FIGS. 1A-1H. Ivermectin kills breast cancer cells through a mixed apoptotic and necrotic mechanism. FIG. 1A: Mouse (4T1.2) and human (MDA-MB-231) TNBC cells manifest similar sensitivity to Ivermectin. Viability of cells treated with various doses of Ivermectin for 24 h. FIG. 1B: Extended exposure time reduces IC50 values to as low as 2 μM. 4T1.2 cells were seeded at 100 cells/well and individual colonies were counted after a week. Cancer cells were exposed to Ivermectin during the initial 24 h or during the entire duration of the assay. FIG. 1C: MDA-MB-231 breast cancer cells manifest higher sensitivity to Ivermectin compared to normal non-transformed human foreskin fibroblasts (HFFs). FIG. 1D: Flow cytometry analysis showing that cell death proceeds through two distinct pathways: a directly necrotic 7AAD-single positive or Annexin V/PS-single positive apoptotic pathway. FIG. 1E: Kinetics of necrotic versus apoptotic killing of 4T1.2 breast cancer cells. FIG. 1F: Ivermectin-induced cell death can be reversed by inhibition of various controlled cell death pathways. 4T1.2 cells were treated for 4 h with 32 μM Ivermectin in the presence of μM concentrations of Z-vad-fmk, Necrostatin-1, Digoxin, or VX-765, as indicated. […]
Caspase activation and PARP cleavage. […] PARP cleavage was analyzed after fixing the cells (eBioscience, Cat #00-5123 and Cat #00-5223) for 30 min at RT. […]

[2] = tested on: 4T1.2 breast cancer cells; experiment: Plasma membrane polarization; assay type: cell-based; conditions: mouse 4T1.2 cells
Description: Plasma membrane polarization. Cancer cells in suspension were treated with various doses of Ivermectin in the presence of 0.5 μM DiBAC4 (3) (Sigma D8189). Treatments were performed in serum free RPMI medium and cells were analyzed by flow cytometry after 1h of incubation. De-/hyper-polarization results in increased/decreased fluorescence in the GFP channel, respectively.

[3] = tested on: murine and human TNBC cells; experiment: HMGB1 and LDH Release; assay type: cell-based, mouse
Description: FIGS. 6A-6E. Ivermectin induces autophagy. FIG. 6A: Ivermectin induces autophagy in breast cancer cells. MDA-MB-231 GFL-LC3 cells were treated with different doses of Ivermectin for 24 h and formation of green fluorescent puncta was evaluated by confocal fluorescence microscopy. FIG. 6B: Western blot confirming the induction of autophagy in both murine and human breast cancer cells, as evidenced by LC3 lipidation and autophagic degradation of p62(SQSTM1). […] MDA-MB-231 cells (triplicates) were treated with different doses of Ivermectin for up to 24h and surface stained with antibody-specific for the human M6P receptor versus isotype control. Similarly, 4T1.2 and MB231 cells were treated with different doses of Ivermectin for 4-24 h, and were stained with an antibody specific for both human and mouse CRT versus isotype control. Mean fluorescent intensity (MFI) values and ratios versus isotype control were calculated after gating on live/membrane-intact cells. FIG. 6D: Ivermectin (32 μM) induces release of HMGB1 from murine and human TNBC cells (triplicates). […] Asterisk (*) indicates p<0.05 relative to untreated or Ivermectin alone controls, respectively.
HMGB1 and LDH Release. HMGB1 and LDH release were evaluated using an HMGB1 detection kit (IBL International, ST51011) and the CYTOTOX96® Non Radioactive Cytotoxicity Assay (Promega, G1780),following manufacturers' instructions.

[4] = tested on: breast (MCF7), prostate (DU-145), head and neck (A253), and ovarian (SKOV3) cancer cells; experiment: Killing of resistant human cancer cell lines by Ivermectin and ATP; assay type: cell-based; conditions: Ivermectin 16 μM, exogenous ATP 3 mM
Description: FIGS. 5A-5E. CaMKII-independent P2X7-mediated killing. FIG. 5A: qPCR showing the extent of gene knockdown in 4T1.2 cells transfected with shRNA targeting the P2X7 receptor versus non-targeting (NT) control (left panel). […] One million wt, shRNA(NT) and shRNA(P2X7) 4T1.2 cells were plated and incubated for 48 h before evaluation of cell numbers and viability. FIG. 5B: P2X7 knockdown cells are more resistant to ATP and the ATP/IVM combo. 4T1.2 cells were treated for 24 h with 1-3 mM ATP, 6-10 μM Ivermectin, or combinations of ATP and Ivermectin. P2X7 knockdown suppresses the synergy between Ivermectin and high dose ATP, as shown by calculation of combination index (CI) values, see Table 2. FIG. 5C: P2X7 knockdown cells are resistant to ATP/Ivermectin induced membrane permeabilization (Asterisk (*) indicates p<0.05). […] FIG. 5E: Comparison of the protective effects of P2X7, CaMKII, and NADPH oxidases inhibition in short-term (4 h, 32 μM IVM) and long-term (24 h, 12 μM IVM) exposure of 4T1.2 cells to Ivermectin. Asterisk (*) indicates p<0.05 relative to Ivermectin alone controls.
Cell viability. […] Following treatment the plates were washed once with PBS and cell viability was measured using the acid phosphatase assay. […] Absorption at 405 nm was measured within 10 min using a multi-well plate reader. Mode of cell death and viability of cells in suspension was evaluated using flow cytometry. […]

In the case of `CC[C@H](C)[C@H]1O[C@]2(CC[C@@H]1C)C[C@@H]1C[C@@H](C/C=C(\C)[C@@H](O[C@H]3C[C@H](OC)[C@@H](O[C@H]4C[C@H](OC)[C@@H](O)[C@H](C)O4)[C@H](C)O3)[C@@H](C)/C=C/C=C3\CO[C@@H]4[C@H](O)C(C)=C[C@@H](C(=O)O1)[C@]34O)O2` [Ivermectin], the PARP cleavage [1] is reported as “rapid cleavage of PARP”, the caspase activation [1] is reported as “potent caspase-1 and caspase-3 activation” and the plasma membrane polarization [2] is reported as “plasma membrane hyper-polarization”. The HMGB1 release ([3]; 32 μM) was “potent inducer of HMGB1 release”, the LDH release ([3]; normalized to maximum release (lysis)) was “induces release of cytosolic LDH” and the “killing by combination of Ivermectin and ATP” value [4] was “synergistically kill”.
